Experiment [1] deals with Skw3 control transductant 17D (Abacavir-allergic donor). Description: TCR-transductant stimulation assay, control transductant 17D. The experiment is classed as cell-based, human. As to conditions: control 17D, 24 h, heterologous EBV-transformed B cells, no drug 1.4.
Description: Skw3 cell lines (Leibniz Institute DSMZ, Brunswick, Germany, (50)) were transduced as described previously (51). […] The resulting retroviruses were used to transduce the TCR-defective Skw3 cell line, which also expresses the human CD8 coreceptor. The TCR-transduced cells outgrowing in selective medium were picked, and the expression of the correct TCR α and β was further assessed by flow cytometry, using a FACS-Canto-I device (BD-Biosciences, San Jose, CA, USA). The transduced cells with stable TCR expression were selected for assessment of reactivity and specificity, which was measured by TCR-induced CD69 expression. Skw3 cell lines expressing the cognate TCR α and β chains were cocultured with autologous EBV-transformed B-lymphoblastoid cell lines (52) at 1:2 ratio at 37° C. Tested drugs were added to the cocultures with the indicated concentrations. After 24 h, cells were stained with anti-human CD3 (Biolegend) and anti-human CD69 (Biolegend) and analysed by flow cytometry. […] Experiments were repeated at least 2 times. […] Heterologous EBV-transformed B cells were also used to stimulate control transductants.
In experiment [2] the test system is Skw3 control transductant AnWe A1 (Allopurinol-allergic donor). As to the kind of experiment: TCR-transductant stimulation assay, control transductant AnWe A1. As to conditions: 24 h, heterologous EBV-transformed B cells, no drug 4.3; for % of CD69 expression in CD3+ transfectants, Concentration 2: Allopurinol/Oxypurinol 62.5 μg/ml; for % of CD69 expression in CD3+ transfectants, Concentration 3: Allopurinol/Oxypurinol 250 μg/ml. It counts as cell-based, human. The text has this: (§1) In brief, rearranged human variable TCR α- and β genes identified by TCR sequencing were synthesized by custom gene synthesis (GeneUniversal, Newark, Delaware, USA) and cloned into retroviral pMSCV Vector (Takara Bio USA Inc, Mountain View, California, USA) containing puromycin and neomycin resistance genes respectively.
(§2) Levels of CD69 expression were monitored in 10,000 CD3^+ events. Experiments were repeated at least 2 times.
(§3) Skw3 cell lines engineered for the expression of TCRs bearing Vα and Vβ chains from top clones found in patients TEN-3,-7,-10 and -15 were stimulated in vitro with EBV-transformed B cells in presence of graded doses of different drugs, or left unpulsed. […] Results from control transductants generated from Abacavir- (17D), Allopurinol-(AnWeAl) or Sulfamethoxazole- (UNO H13) allergic donors (53) (51) (7) are also shown. Bold and underlined values indicate >2 or >1.5 CD69 expression fold increase versus unpulsed cultures.

For experiment [3], the system named is TCRαβ Skw3 transfectant C1 (TCR of top clone of patient TEN-3). The experiment is classed as cell-based, human. As to conditions: 24 h with autologous EBV-transformed B cells, no drug 2.3; for % of CD69 expression in CD3+ transfectants, Concentration 2: Allopurinol/Oxypurinol 62.5 μg/ml, Sulfamethoxazole 100 μg/ml; for % of CD69 expression in CD3+ transfectants, Concentration 3: Allopurinol/Oxypurinol 250 μg/ml, Sulfamethoxazole 200 μg/ml.
Description: as §1, §2, §3

For experiment [4], the system named is TCRαβ Skw3 transfectant C4 (TCR of top clone of patient TEN-15). It counts as cell-based, human. As to conditions: for % of CD69 expression in CD3+ transfectants, Concentration 1 / % of CD69 expression in CD3+ transfectants, Concentration 2 / % of CD69 expression in CD3+ transfectants, Concentration 3: transfectant C4, 24 h; for % of CD69 expression in CD3+ transfectants, Concentration 1: Levofloxacin (no drug 6.0) / Metronidazole (no drug 6.3) 25 μg/ml; for % of CD69 expression in CD3+ transfectants, Concentration 2: Levofloxacin (no drug 6.0) / Metronidazole (no drug 6.3) 50 μg/ml; for % of CD69 expression in CD3+ transfectants, Concentration 3: Levofloxacin (no drug 6.0) / Metronidazole (no drug 6.3) 100 μg/ml; for CD69 expression response of transduced Skw3 cells to drug (in words): transductant from patient TEN-15.
Description: Skw3 cell lines (Leibniz Institute DSMZ, Brunswick, Germany, (50)) were transduced as described previously (51). […] The resulting retroviruses were used to transduce the TCR-defective Skw3 cell line, which also expresses the human CD8 coreceptor. The TCR-transduced cells outgrowing in selective medium were picked, and the expression of the correct TCR α and β was further assessed by flow cytometry, using a FACS-Canto-I device (BD-Biosciences, San Jose, CA, USA). The transduced cells with stable TCR expression were selected for assessment of reactivity and specificity, which was measured by TCR-induced CD69 expression. Skw3 cell lines expressing the cognate TCR α and β chains were cocultured with autologous EBV-transformed B-lymphoblastoid cell lines (52) at 1:2 ratio at 37° C. Tested drugs were added to the cocultures with the indicated concentrations. After 24 h, cells were stained with anti-human CD3 (Biolegend) and anti-human CD69 (Biolegend) and analysed by flow cytometry. […] Experiments were repeated at least 2 times. […] Then, the productive rearranged TCRα and TCRβ chains were transduced into Skw3 cells, a TCR defective lymphoma line (28) (data not shown). After verification of sustained and stable TCR expression (data not shown), transduced Skw3 cells were stimulated with the culprit (or control) drug in presence of autologous Epstein Barr Virus (EBV)-transformed B cells generated from patient's PBMCs. The following day, we measured CD69 expression at the surface of Skw3 cells, as marker for TCR stimulation. […] Heterologous EBV-transformed B cells were also used to stimulate control transductants.

For a further experiment, the system named is human CD38+CD8+ T cells. As to the kind of experiment: Model of graft versus host versus disease (GVHD): NGS mice reconstituted with PBMCs from a healthy donor. The experiment is classed as in vivo, mouse. The text has this: NGS mice were reconstituted with 10×10^6 PBMCs from a healthy donor, and treated by two-weekly injections of an anti-CD38+ mAb (Daratumumab, at 100 or 300 microg/mouse). Control group received PBS. Results depict the percentage +/−SD of CD38+ fraction among human CD8+ T cells present in the spleen, as evaluated by flow cytometry 28 days after PBMCs injection.
NGS mice were reconstituted with 10×10^6 PBMCs from a healthy donor, and treated by two-weekly injections of an anti-CD38+ mAb (Daratumumab, at 100 or 300 microg/mouse). Control group received PBS. The percentage of humanization was measured by flow cytometry at day 5 and at day 12 after PBMC injection. It was calculated by dividing the percentage of human blood CD45+ cells/the percentage of total (mouse+human) blood CD45+ cells.
To this end, NGS mice were reconstituted with 10×10^6 peripheral blood mononuclear cells (PBMCs) from a healthy donor, and treated by two-weekly injections of daratumumab (at 100 or 300 microg/mouse). Control group received PBS. Reconstitution is generally assessed by measuring the ratio of humanization (calculated by dividing the % of human blood CD45+ cells/the % of […]). A high ratio of humanization (>50-60%) classically correlates with the appearance of GVHD symptoms, approximately 1 month after transfer.

The subject of experiment [5] is cytotoxic CD8+CD38+ T cells. Description: TEN preclinical model: NSG mice transferred with PBMCs from a TEN patient and given lamotrigine; daratumumab evaluation. The experiment is classed as in vivo, mouse. As to conditions: for depletion of already expanded CD38+ cells (CD8+CD38+ T cells) / depletion of cytotoxic CD8+CD38+Granzyme B+Granulysin+ T cell subset: curative mode: injections from day 29; for depletion of already expanded CD38+ cells (CD8+CD38+ T cells): blood (FIG. 16); for depletion of cytotoxic CD8+CD38+Granzyme B+Granulysin+ T cell subset: blood (FIG. 17); for formation/expansion of cytotoxic CD8+CD38+Granzyme B+Granulysin+ T cell subset: blood (FIG. 15A); for formation/expansion of CD4+CD38+ and CD8+CD38+ T cells: preventive mode: i.p. 200 mg twice weekly from day 4, blood and spleen, throughout the protocol, versus control isotype (FIG. 13); for depletion of cytotoxic cells expressing the TCRVbeta7.1+ chain (CD8+Vbeta7.1+ T cells): spleen at day 31, versus isotype-treated controls (FIG. 12). The protocol: (§4) NSG animals were adoptively transferred at day 0 with 1.10^6 millions PBMCs collected from a TEN patient, and successively administrated with lamotrigine (the culprit drug; every day, from day 4. In parallel, NSG mice were injected i.p. with […] of daratumumab or a control isotype twice weekly, starting mAb injections from day 4 (preventive mode). Results depict the kinetic of human CD8+Vbeta7.1+ T cell expansion measured by flow cytometry in the spleen of NSG mice at day 31. Results are expressed as mean and individual % of Vbeta7.1+ cell fraction among total CD8+ T cells. Ten mice per group were used in this experiment. Of note, 3.2% of Vbeta7.1+ cells were detected in CD8+ T cells at the time of cell transfer (day 0).
as §4, with “CD4+CD38+/− and CD8+CD38+/−” for “CD8+Vbeta7.1+”, “blood” for “spleen”, “throughout the protocol.” for “at day 31.”, “number” for “%”, “CD38+(A) and CD38− (B) cells/mL blood.” for “Vbeta7.1+ cell fraction among total CD8+ T cells.”, “experiment.” for “experiment. Of note, 3.2% of Vbeta7.1+ cells were detected in CD8+ T cells at the time of cell transfer (day 0).”
(§5) NSG animals were adoptively transferred at day 0 with 1.10^6 millions PBMCs collected from a TEN patient, and successively administrated with lamotrigine (the culprit drug; or vehicle by oral gavage, every day, from day 4. In parallel, NSG mice were injected i.p. with […] of daratumumab or a control isotype twice weekly, starting mAb injections from day 4 (preventive mode). Results depict the kinetic of human CD4+ and CD8+ T cell expansion measured by flow cytometry in the blood of NSG mice throughout the protocol. Results are expressed as mean and individual number of CD4+ and CD8+ T cells/mL blood. Ten mice per group were used in this experiment.
as §5, with “drug; 0.1 mg/kg/day),” for “drug; or vehicle by oral gavage,”, “human cytotoxic CD8+CD38+/−GranzymeB+Granulysin+” for “human CD4+ and CD8+”, “of CD8+CD38+GranzymeB+Granulysin+” for “of CD4+”, “and CD8+CD38+GranzymeB+Granulysin+ cells/mL blood (A). Details for total CD8+GranzymeB+Granulysin+” for “and CD8+”, “T cells are also shown (B).” for “T cells/mL blood.”
NSG animals were adoptively transferred at day 0 with 1.10^6 millions PBMCs collected from a TEN patient, and successively administrated with lamotrigine (the culprit drug; every day, from day 4. In parallel, NSG mice were injected i.p. with […] of daratumumab or a control isotype twice weekly, starting mAb treatment from day 4 (preventive mode) or from day 29 (curative mode). Results depict the kinetic of human CD8+CD38+/− T cell expansion measured by flow cytometry in the blood of NSG mice throughout the protocol. Results are expressed as mean and individual % of CD38+ and CD38− fractions among total CD8+ T cells. Five mice per group were used in this experiment. […]

Setting [6] is: 300 microg/mouse, 2 times a week.

“Also recorded” adds a separate entry of the source. Like-named read-outs stand apart in the source and are kept apart here.

Turning to `Nc1nc(NC2CC2)c2ncn([C@H]3C=C[C@@H](CO)C3)c2n1` [Abacavir], the “% of CD69 expression in CD3+ transfectants, Concentration 1” value (from here on “% of CD69 expression … Concentration 1”) in experiment [1] (Abacavir 1 μg/ml, Pantoprazole 12.5 μg/ml) is given as 93.2%. Moreover, in experiment [1] (Abacavir 10 μg/ml, Pantoprazole 25 μg/ml), the “% of CD69 expression in CD3+ transfectants, Concentration 2” value (“% of CD69 expression … Concentration 2” for short) was 88.9%. Moreover, in experiment [1] (Abacavir 20 μg/ml, Pantoprazole 50 μg/ml), the “% of CD69 expression in CD3+ transfectants, Concentration 3” value (shortened to “% of CD69 expression … Concentration 3”) amounted to 93.1%.

As to `Oc1ncnc2[nH]ncc12` [Allopurinol], in experiment [2], the “% of CD69 expression … Concentration 2” value worked out at 17.1% and the “% of CD69 expression … Concentration 3” value was 26.4%. In addition, in experiment [3], the “% of CD69 expression … Concentration 2” value is 2.2% and the “% of CD69 expression … Concentration 3” value came out at 3.05%.

In the case of `C[C@H]1COc2c(N3CCN(C)CC3)c(F)cc3c(=O)c(C(=O)O)cn1c23` [Levofloxacin], in experiment [4], the “% of CD69 expression … Concentration 1” value worked out at 5.6%; the “% of CD69 expression … Concentration 2” value is 5.4%; the “% of CD69 expression … Concentration 3” value was found to be 4.4%.

On to `Cc1ncc([N+](=O)[O-])n1CCO` [Metronidazole], for which, in experiment [4], the “CD69 expression response of transduced Skw3 cells to drug (in words)” value was “failed to respond”; the “% of CD69 expression … Concentration 1” value was found to be 5.7%; the “% of CD69 expression … Concentration 2” value amounted to 5.4%; the “% of CD69 expression … Concentration 3” value came out at 6.0%. Further, in experiment [4] (listed as metronidazole), the “CD69 expression response of transduced Skw3 cells to drug (in words)” value was “failed to detect robust CD69+ expression”.

Regarding `O=c1[nH]c(=O)c2c[nH]nc2[nH]1` [Oxypurinol], in experiment [2], the “% of CD69 expression … Concentration 2” value is recorded as 5.0% and the “% of CD69 expression … Concentration 3” value is on record as 5.75%. Further, in experiment [3], the “% of CD69 expression … Concentration 2” value was determined as 22.9% and the “% of CD69 expression … Concentration 3” value was found to be 39.6%.

On to `Cc1cc(NS(=O)(=O)c2ccc(N)cc2)no1` [Sulfamethoxazole], for which, in experiment [3], the “% of CD69 expression … Concentration 2” value amounted to 1.3% and the “% of CD69 expression … Concentration 3” value amounted to 1.4%.

As for Daratumumab, in the experiment with human CD38+CD8+ T cells (setting [6]), the “GVHD development, higher regimen” value is “failed to prevent GVDH development”. Moreover, the “T cell expansion, higher regimen” value in the experiment with human CD38+CD8+ T cells (setting [6]) is recorded as “transiently inhibited T cell expansion”. The “expansion of human cells (ratio of humanization)” value was “transiently inhibited the expansion of human cells” with human CD38+CD8+ T cells (day 12, 7 days after the initial daratumumab injection, blood (FIG. 8)) and “inhibition was lost” in the experiment on human CD38+CD8+ T cells (day 19, 14 days after the initial daratumumab injection). In the experiment on human CD38+CD8+ T cells (day 28, two-weekly injections, 100 or 300 microg/mouse), the “development of the GVHD” value is given as “failed to hamper the development of the GVHD”. The “human CD38+CD8+ T cell levels in blood” value in the experiment with human CD38+CD8+ T cells (murine GVHD model) is listed as “reduction of human CD8+CD38+ T cell levels in blood; also recorded: reduction of human CD38+CD8+ T cells levels in blood”. Also, the “depletion of CD38+ cells (CD38+ fraction among human CD8+ T cells)” value in the experiment on human CD38+CD8+ T cells (two-weekly injections, 100 or 300 microg/mouse, spleen, flow cytometry, 28 days after PBMCs injection (FIG. 7), preliminary experiments) was “depleted CD38+ cells”. Moreover, the “depletion of already expanded CD38+ cells (CD8+CD38+ T cells)” value in experiment [5] is recorded as “acutely depleted the CD38+ cells that have already expanded”; in experiment [5] (listed as Daratumamub) it was “efficiently depleted”. Moreover, the “depletion of cytotoxic CD8+CD38+Granzyme B+Granulysin+ T cell subset” value in experiment [5] is “acutely depleted”; in experiment [5] (listed as Daratumamub), “efficiently depleted”. In experiment [5] (preventive mode, from day 4 (FIG. 13B)), the “expansion of T cell subsets which do not express CD38 marker” value is reported as “did not avoid the progressive expansion of some T cell subsets”. In addition, the “formation/expansion of cytotoxic CD8+CD38+Granzyme B+Granulysin+ T cell subset” value in experiment [5] (preventive mode, from day 4) was “preventing the formation of cytotoxic CD8+CD38+Granzyme B+Granulysin+ T cell subset”; in experiment [5] (preventive mode, from day 4, listed as Daratumamub), “strongly inhibited the expansion”. In addition, in experiment [5] (preventive mode, from day 4, blood (FIG. 15B)), the “accumulation of cytotoxic T cells (total CD8+GranzymeB+Granulysin+)” value was “severely impaired the accumulation of cytotoxic T cells”. In addition, in experiment [5] (preventive mode, from day 4, versus control isotype (FIG. 14)), the “global T cell expansion (CD4+ and CD8+ T cells/mL blood)” value was “Lower expansion; also recorded: dramatically delayed and impaired the global T cell expansion”. In addition, the “formation/expansion of CD4+CD38+ and CD8+CD38+ T cells” value in experiment [5] was “efficiently and extensively prevented the formation of CD4+CD38+ and CD8+CD38+ T cells”; in experiment [5] (listed as Daratumamub) it was “blocked the expansion”. Further, the “depletion of cytotoxic cells expressing the TCRVbeta7.1+ chain (CD8+Vbeta7.1+ T cells)” value in experiment [5] (preventive mode) was “strong depletion”; in experiment [5] (preventive mode, listed as Daratumamub) it was “preferentially depleted”.

These data come from patent publication US20240003879A1, “METHODS FOR DIAGNOSIS AND MONITORING OF TOXIC EPIDERMAL NECROLYSIS” (INSERM (INSTITUT NATIONAL DE LA SANTÉ ET DE LA RECHERCHE …, priority 2020, published 2024).
